Data published in the NIST ThermoML archive (doi:10.1016/j.jct.2011.11.021).
± gives the expanded uncertainty stated by the source.

Test: activity coefficient (dimensionless); of the first substance listed, at infinite dilution; xn = mol fraction of the nth substance listed
Conditions: Liquid, Chromatography, x1 = 0

| SMILES | activity coefficient (318.15 K) | activity coefficient (328.15 K) | activity coefficient (338.15 K) | activity coefficient (348.15 K) | activity coefficient (358.15 K) | activity coefficient (368.15 K) |
| --- | --- | --- | --- | --- | --- | --- |
| Cc1ccccc1C [1,2-dimethylbenzene] + COCC[N+]1(C)CCOCC1.O=S(=O)([N-]S(=O)(=O)C(F)(F)F)C(F)(F)F | 2.75 ± 0.19 | 2.71 ± 0.18 | 2.68 ± 0.18 | 2.65 ± 0.18 | 2.61 ± 0.18 | 2.58 ± 0.18 |
| Cc1cccc(C)c1 [1,3-dimethylbenzene] + COCC[N+]1(C)CCOCC1.O=S(=O)([N-]S(=O)(=O)C(F)(F)F)C(F)(F)F | 3.05 ± 0.21 | 3.02 ± 0.21 | 2.99 ± 0.2 | 2.97 ± 0.2 | 2.94 ± 0.2 | 2.92 ± 0.2 |
| Cc1ccc(C)cc1 [1,4-dimethylbenzene] + COCC[N+]1(C)CCOCC1.O=S(=O)([N-]S(=O)(=O)C(F)(F)F)C(F)(F)F | 3.09 ± 0.21 | 3.06 ± 0.21 | 3.03 ± 0.21 | 3 ± 0.2 | 2.98 ± 0.2 | 2.96 ± 0.2 |
| C1COCCO1 [1,4-dioxane] + COCC[N+]1(C)CCOCC1.O=S(=O)([N-]S(=O)(=O)C(F)(F)F)C(F)(F)F | 0.57 ± 0.041 | 0.596 ± 0.042 | 0.615 ± 0.043 | 0.638 ± 0.044 | 0.653 ± 0.045 | 0.674 ± 0.046 |
| C=CCCCCCCCC [1-decene] + COCC[N+]1(C)CCOCC1.O=S(=O)([N-]S(=O)(=O)C(F)(F)F)C(F)(F)F | 87.8 ± 6 | 78.8 ± 5.4 | 72.1 ± 4.9 | 65.7 ± 4.5 | 59.4 ± 4.1 | 54.9 ± 3.8 |
| C=CCCCCC [1-heptene] + COCC[N+]1(C)CCOCC1.O=S(=O)([N-]S(=O)(=O)C(F)(F)F)C(F)(F)F | 24.9 ± 1.7 | 23 ± 1.6 | 21.7 ± 1.5 | 20.3 ± 1.4 | 19 ± 1.3 | 18.1 ± 1.2 |
| C#CCCCCC [1-heptyne] + COCC[N+]1(C)CCOCC1.O=S(=O)([N-]S(=O)(=O)C(F)(F)F)C(F)(F)F | 7.44 ± 0.51 | 7.24 ± 0.49 | 7.09 ± 0.48 | 6.94 ± 0.47 | 6.79 ± 0.46 | 6.65 ± 0.45 |
| C#CCCCC [1-hexyne] + COCC[N+]1(C)CCOCC1.O=S(=O)([N-]S(=O)(=O)C(F)(F)F)C(F)(F)F | 4.88 ± 0.33 | 4.8 ± 0.33 | 4.75 ± 0.32 | 4.7 ± 0.32 | 4.65 ± 0.32 | 4.61 ± 0.31 |
| CCC[N+](=O)[O-] [1-nitropropane] + COCC[N+]1(C)CCOCC1.O=S(=O)([N-]S(=O)(=O)C(F)(F)F)C(F)(F)F |  | 0.791 ± 0.051 | 0.787 ± 0.051 | 0.783 ± 0.051 | 0.78 ± 0.051 | 0.778 ± 0.051 |
| C#CCCCCCC [1-octyne] + COCC[N+]1(C)CCOCC1.O=S(=O)([N-]S(=O)(=O)C(F)(F)F)C(F)(F)F | 11.4 ± 0.8 | 11 ± 0.8 | 10.6 ± 0.7 | 10.3 ± 0.7 | 9.93 ± 0.68 | 9.67 ± 0.66 |
| C=CCCC [1-pentene] + COCC[N+]1(C)CCOCC1.O=S(=O)([N-]S(=O)(=O)C(F)(F)F)C(F)(F)F | 11 ± 0.8 | 10.3 ± 0.7 | 9.79 ± 0.67 | 9.25 ± 0.63 | 8.83 ± 0.6 | 8.35 ± 0.57 |
| CC(C)CC(C)(C)C [2,2,4-trimethylpentane] + COCC[N+]1(C)CCOCC1.O=S(=O)([N-]S(=O)(=O)C(F)(F)F)C(F)(F)F | 55.9 ± 3.8 | 49.5 ± 3.4 | 45 ± 3.1 | 40.8 ± 2.8 | 37.2 ± 2.5 | 34.1 ± 2.3 |
| CCC(C)(C)C [2,2-dimethylbutane] + COCC[N+]1(C)CCOCC1.O=S(=O)([N-]S(=O)(=O)C(F)(F)F)C(F)(F)F | 32.4 ± 2.2 | 28.4 ± 1.9 | 25.7 ± 1.8 | 23.2 ± 1.6 | 21.2 ± 1.4 | 19.5 ± 1.3 |
| CCOC(C)(C)C [2-ethoxy-2-methylpropane] + COCC[N+]1(C)CCOCC1.O=S(=O)([N-]S(=O)(=O)C(F)(F)F)C(F)(F)F | 9.5 ± 0.65 | 9.21 ± 0.63 | 8.97 ± 0.61 | 8.75 ± 0.6 | 8.49 ± 0.58 | 8.3 ± 0.57 |
| CCC(C)(C)OC [2-methoxy-2-methylbutane] + COCC[N+]1(C)CCOCC1.O=S(=O)([N-]S(=O)(=O)C(F)(F)F)C(F)(F)F | 5.55 ± 0.38 | 5.5 ± 0.37 | 5.43 ± 0.37 | 5.37 ± 0.37 | 5.32 ± 0.36 | 5.28 ± 0.36 |
| COC(C)(C)C [2-methoxy-2-methylpropane] + COCC[N+]1(C)CCOCC1.O=S(=O)([N-]S(=O)(=O)C(F)(F)F)C(F)(F)F | 3.53 ± 0.24 | 3.55 ± 0.24 | 3.57 ± 0.24 | 3.58 ± 0.24 | 3.59 ± 0.24 | 3.6 ± 0.25 |
| CC(C)CO [2-methyl-1-propanol] + COCC[N+]1(C)CCOCC1.O=S(=O)([N-]S(=O)(=O)C(F)(F)F)C(F)(F)F | 3.19 ± 0.22 | 2.81 ± 0.19 | 2.51 ± 0.17 | 2.25 ± 0.15 | 2.04 ± 0.14 | 1.89 ± 0.13 |
| CC(C)(C)O [2-methylpropan-2-ol] + COCC[N+]1(C)CCOCC1.O=S(=O)([N-]S(=O)(=O)C(F)(F)F)C(F)(F)F | 2.22 ± 0.15 | 2.03 ± 0.14 | 1.88 ± 0.13 | 1.75 ± 0.12 | 1.62 ± 0.11 | 1.52 ± 0.1 |
| CCC(C)CC [3-methylpentane] + COCC[N+]1(C)CCOCC1.O=S(=O)([N-]S(=O)(=O)C(F)(F)F)C(F)(F)F | 32.3 ± 2.2 | 29 ± 2 | 26.3 ± 1.8 | 23.9 ± 1.6 | 21.9 ± 1.5 | 20.2 ± 1.4 |
| C=C(C)c1ccccc1 [(1-methylethenyl)benzene] + COCC[N+]1(C)CCOCC1.O=S(=O)([N-]S(=O)(=O)C(F)(F)F)C(F)(F)F |  | 2.74 ± 0.19 | 2.76 ± 0.19 | 2.78 ± 0.19 | 2.79 ± 0.19 | 2.81 ± 0.19 |
| CC(=O)O [acetic acid] + COCC[N+]1(C)CCOCC1.O=S(=O)([N-]S(=O)(=O)C(F)(F)F)C(F)(F)F |  | 0.451 ± 0.036 | 0.456 ± 0.036 | 0.459 ± 0.036 | 0.465 ± 0.036 | 0.468 ± 0.037 |
| CC(C)=O [acetone] + COCC[N+]1(C)CCOCC1.O=S(=O)([N-]S(=O)(=O)C(F)(F)F)C(F)(F)F | 0.43 ± 0.035 | 0.442 ± 0.036 | 0.451 ± 0.036 | 0.461 ± 0.036 | 0.47 ± 0.037 | 0.48 ± 0.037 |
| CC#N [acetonitrile] + COCC[N+]1(C)CCOCC1.O=S(=O)([N-]S(=O)(=O)C(F)(F)F)C(F)(F)F | 0.423 ± 0.035 | 0.426 ± 0.035 | 0.428 ± 0.035 | 0.431 ± 0.035 | 0.433 ± 0.035 | 0.436 ± 0.035 |
